Experiments:
[1] = molecular target: T1, TxA₂ synthase (Homo sapiens, UniProt P24557); conditions: statement on the known compound; cited from earlier work
T1 sequence (P24557 1-533): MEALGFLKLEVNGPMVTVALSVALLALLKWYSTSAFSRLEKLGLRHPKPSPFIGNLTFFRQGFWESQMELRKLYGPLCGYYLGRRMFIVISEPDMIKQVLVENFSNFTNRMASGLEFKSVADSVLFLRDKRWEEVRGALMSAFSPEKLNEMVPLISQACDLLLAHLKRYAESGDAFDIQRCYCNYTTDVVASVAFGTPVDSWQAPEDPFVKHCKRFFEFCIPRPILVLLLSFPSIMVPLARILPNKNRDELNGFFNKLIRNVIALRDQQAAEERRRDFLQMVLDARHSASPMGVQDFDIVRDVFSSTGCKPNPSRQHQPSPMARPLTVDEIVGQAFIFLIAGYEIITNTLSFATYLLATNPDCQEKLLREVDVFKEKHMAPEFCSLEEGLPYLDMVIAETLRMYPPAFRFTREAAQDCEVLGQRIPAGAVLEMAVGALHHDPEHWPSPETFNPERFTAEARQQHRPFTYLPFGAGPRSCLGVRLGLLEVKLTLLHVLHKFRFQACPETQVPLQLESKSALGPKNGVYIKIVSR

[2] = molecular target: T2, TxA₂ Synthase (Rattus norvegicus, UniProt P49430); experiment: In vitro effects on TxB₂ production in rat whole blood during clotting (RIA); type: cell-based; conditions: result in words
T2 construct: Blood was withdrawn from the abdominal aorta of the animals under light ether anesthesia; from tissue; host or cells: rat whole blood (clotting; platelets)
T2 sequence (P49430 1-533): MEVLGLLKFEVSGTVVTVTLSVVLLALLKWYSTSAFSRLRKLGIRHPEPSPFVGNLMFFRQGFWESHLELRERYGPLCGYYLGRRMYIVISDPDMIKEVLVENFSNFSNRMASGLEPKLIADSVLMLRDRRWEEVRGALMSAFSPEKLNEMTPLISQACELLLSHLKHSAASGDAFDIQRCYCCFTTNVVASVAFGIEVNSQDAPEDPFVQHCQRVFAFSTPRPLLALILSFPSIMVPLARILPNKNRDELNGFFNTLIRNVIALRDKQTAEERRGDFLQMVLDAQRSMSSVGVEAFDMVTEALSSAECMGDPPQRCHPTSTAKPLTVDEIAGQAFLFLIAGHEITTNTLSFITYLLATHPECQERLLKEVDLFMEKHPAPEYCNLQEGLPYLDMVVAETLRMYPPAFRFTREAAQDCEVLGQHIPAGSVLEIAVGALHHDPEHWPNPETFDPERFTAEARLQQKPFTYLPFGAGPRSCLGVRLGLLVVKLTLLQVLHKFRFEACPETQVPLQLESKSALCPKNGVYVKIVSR
Description: The compounds of formula (I) were for example tested for their ability to inhibit TxA₂ Synthase activity (as reflected by TxB₂ generated in whole blood during clotting or in isolated glomeruli) in vitro in the rat.
The in vitro experiments were carried out as follows: The effect of the compounds on TxA₂ synthesis was evaluated in serum.
Blood was withdrawn from the abdominal aorta of the animals under light ether anesthesia.
Samples were then allowed to clot for 1 h at 37°C, centrifuged at 3000 rpm for 10 min, serum collected and stored at -20°C until assayed. TxB₂ levels were determined by RIA according to previously described procedures [Patrono et al. - Thromb.

Row | SMILES | TxA₂ synthase inhibitory activity [1] | inhibitory activity on TxA₂ synthesis [2]
1 | O=C(O)COc1ccc(CCNS(=O)(=O)c2ccccc2)cc1 [BM 13177, Sulotroban] | devoid of TxA₂ synthase inhibitory activity | –
2 | O=C(O)CCCCO/N=C(\C1CCCCC1)C(Cc1cnccn1)n1ccnc1 (racemic) [FCE 27751, (±)-(E)-5-[2-pyrazinylmethyl-2-(imidazol-1-yl)-1-cyclohexylethylidene]aminoxypentanoic acid] | – | marked inhibitory activity

From patent EP0611765A1, “2-(Imidazol-1-yl)-3-heteroarylpropylidene-aminoxyalkanoic acid derivatives” (PHARMACIA S.p.A., priority 1993, dated 1994)
